Assay results taken from patent EP0245669B1, “Pharmaceutical preparation for preventing damage to living cells by free radicals, or for increasing the efficacy of organic sulphur compounds, and process for increasing the life span of isolated organs” (Medopharm Arzneimittelwerk Dr. Zillich GmbH & Co., priority 1986, dated 1987).

How the values were obtained:
[1] = Floersheim, Agents Actions 16, 580 (1985); cited from earlier work
weiblichen C3H Mäusen = test: Radiation protection: survival of mice after gamma irradiation (cobalt-60) following i.p. pretreatment; format: in vivo, Mäuse; conditions: for Ueberlebensrate nach Bestrahlung mit 9 Gy Anzahl / Ueberlebensrate nach Bestrahlung mit 10 Gy Anzahl / Ueberlebensrate nach Bestrahlung mit 11 Gy Anzahl / Ueberlebensrate nach Bestrahlung mit 12 Gy Anzahl / Ueberlebensrate nach Bestrahlung mit 13 Gy Anzahl: surviving/irradiated mice; for Ueberlebensrate in %: best result with zinc aspartate alone, 30 days after irradiation; for Ueberleben einer Bestrahlung von 14 Gy: zinc aspartate alone
Text: In den nachfolgenden Beispielen wurde die synergistische Wirkung der durch die erfindungsgemässe Verwendung hergestellten pharmazeutischen Präparate mit organische Schwefelverbindungen enthaltenden Präparaten anhand des Strahlenschutzes getestet und es wurde auch die Strahlenschutzwirkung der Zinkionen enthaltenden Präparate mit bisher bekannten Strahlenschutzpräparaten an Mäusen getestet. Die Versuche wurden mit weiblichen C3H Mäusen (GL. Bomholtgard, Ry, Dänemark) durchgeführt, die 20 bis 22 g wogen. Die Mäuse wurden unter Bedingungen gehalten, wo sie so viel Standard-Nagetierfutter (Nafag Pellts) fressen und so viel Leitungswasser trinken können, wie sie wollten. Die Bestrahlung erfolgte mit Gammastrahlen aus einer Kobalt-60 Quelle. Es wurden unterschiedliche Bestrahlungen vorgenommen, und zwar mit 9 Gy, 10 Gy, 11 Gy, 12 Gy, 13 Gy und 14 Gy.
10 Minuten vor der Bestrahlung, 30 Minuten vor der Bestrahlung oder 120 Minuten vor der Bestrahlung wurde ein durch die erfindungsgemässe Verwendung hergestelltes synergistisch wirkendes pharmazeutisches Präparat, bzw. ein entsprechendes, Zinkionen enthaltendes Strahlenschutzpräparat oder ein aus dem Stand der Technik bekanntes Strahlenschutzpräparat zu Vergleichszwecken durch intraperitoneale Injektion verabreicht.
Bei der Gruppe der Mäuse zu Vergleichszwecken, die ohne Verabreichung eines Strahlenschutzpräparates bestrahlt wurden, erfolgte 10 Minuten vor der Bestrahlung die Verabreichung von destilliertem Wasser. Bei diesen unbehandelten Mäusen überlebten nur 50% der Tiere eine Bestrahlung von 8 Gy, d.h. der LD₅₀-Wert betrug 8 Gy.
Nach den Arbeitsweisen der vorangegangenen Beispiele 1 bis 4, wurden weitere Tests mit den genannten weiblichen Mäusen durchgeführt, und zwar unter Verwendung der angeführten Zinksalze. Die bei diesen Tests erzielten Ergebnisse sind in der nachfolgenden Tabelle I zusammengestellt. Für jede der angewandten Bestrahlungsstärken ist in der Rubrik "Anzahl" diejenige Anzahl der Mäuse angeführt, welche die Bestrahlung überlebten, geteilt durch die Gesamtzahl der Mäuse, welche bestrahlt wurden. Ein entsprechender Wert von 1/10 bedeutet also, dass von 10 bestrahlten Mäusen eine überlebt hatte. In der Spalte mit der Bezeichnung "Prozent", ist die Prozent-Ueberlebensrate angeführt. Bei einer überlebenden Maus pro 10 getesteten Mäusen beträgt diese Ueberlebensrate 10 %.
Zu Vergleichszwecken sind in der nachfolgenden Tabelle III die Ueberlebensraten von Mäusen zusammengestellt, die nach dem in Beispiel 5 beschriebenen Verfahren einer Vorbehandlung mit einem bekannten schwefelhaltigen Strahlenschutzmittel unterworfen worden waren. Orientierende Vorversuche hatten gezeigt, dass diese Strahlenschutzmittel bereits ihre Wirkung verloren hatten, wenn sie zwei Stunden vor der Einwirkung der Bestrahlung verabreicht worden waren. Die Bestrahlung wurde, wie aus der Tabelle ersichtlich ist, zwei Minuten nach der Verabreichung, in den meisten Fällen 10 Minuten nach der Verabreichung, aber auch 30 Minuten, bzw. 120 Minuten nach der Verabreichung durchgeführt. Die Werte deuten darauf hin, dass 30 Minuten nach der Verabreichung die Schutzwirkung schon wieder deutlich nachgelassen hat. Für jede Bestrahlungsstärke ist wiederum die Anzahl der Tiere angeführt, die nach 30 Tagen überlebt haben, geteilt durch die Gesamtzahl der Tiere, die behandelt und bestrahlt worden waren.
Anhand dieses Beispiels soll die synergistische Wirkung von Zinkionen und Schwefelverbindungen bezüglich eines Strahlenschutzes erläutert werden. Es wurde wieder in der gleichen Weise gearbeitet, wie in den vorangegangenen Beispielen 1 bis 3, bzw. 5, und es wurde auch die gleiche Art an weiblichen Mäusen getestet. Die Verabreichung der Zinkionen enthaltenden Lösung und der Lösung der Schwefelverbindung erfolgte entweder nacheinander oder gleichzeitig durch intraperitoneale Injektion.
In allen Fällen wurde die Ueberlebensrate 30 Tage nach der Einwirkung der Bestrahlung bestimmt.

Mäuse = test: Toxicity of the zinc salts used as radiation protection agents (LD50); format: in vivo
Method: In diesem Beispiel wurde die Toxizität der als Strahlenschutzmittel eingesetzten Zinksalze getestet.
Der LD₅₀-Wert betrug für das Zinkaspartat 55 mg/kg Körpergewicht, für das Zinkchlorid 24 mg/kg Körpergewicht und für das Zinksulfat 45 mg/kg Körpergewicht.

[2] = 10 mg/kg i.p., 10 min before 9 Gy
[3] = 20 mg/kg i.p., 10 min before 9 Gy
[4] = 20 mg/kg i.p., 10 min before 10 Gy
[5] = 20 mg/kg i.p., 10 min before 11 Gy
[6] = 20 mg/kg i.p., 30 min before 9 Gy
[7] = 20 mg/kg i.p., 30 min before 10 Gy
[8] = 20 mg/kg i.p., 120 min before 9 Gy
[9] = 20 mg/kg i.p., 120 min before 10 Gy
[10] = 30 mg/kg i.p., 10 min before 9 Gy
[11] = 30 mg/kg i.p., 10 min before 10 Gy
[12] = 30 mg/kg i.p., 10 min before 11 Gy
[13] = 30 mg/kg i.p., 10 min before 12 Gy
[14] = 30 mg/kg i.p., 10 min before 13 Gy
[15] = 30 mg/kg i.p., 30 min before 9 Gy
[16] = 30 mg/kg i.p., 30 min before 10 Gy
[17] = 30 mg/kg i.p., 30 min before 11 Gy
[18] = 30 mg/kg i.p., 30 min before 12 Gy
[19] = 30 mg/kg i.p., 30 min before 13 Gy
[20] = 30 mg/kg i.p., 120 min before 9 Gy
[21] = 30 mg/kg i.p., 120 min before 10 Gy
[22] = 30 mg/kg i.p., 120 min before 11 Gy
[23] = 30 mg/kg i.p., 120 min before 12 Gy
[24] = 30 mg/kg i.p., 120 min before 13 Gy
[25] = 40 mg/kg i.p., 10 min before 9 Gy
[26] = 40 mg/kg i.p., 10 min before 10 Gy
[27] = 40 mg/kg i.p., 10 min before 11 Gy
[28] = 40 mg/kg i.p., 10 min before 12 Gy
[29] = 40 mg/kg i.p., 10 min before 13 Gy
[30] = 40 mg/kg i.p., 30 min before 9 Gy
[31] = 40 mg/kg i.p., 30 min before 10 Gy
[32] = 40 mg/kg i.p., 30 min before 11 Gy
[33] = 40 mg/kg i.p., 30 min before 12 Gy
[34] = 40 mg/kg i.p., 30 min before 13 Gy
[35] = 40 mg/kg i.p., 120 min before 9 Gy
[36] = 40 mg/kg i.p., 120 min before 10 Gy
[37] = 40 mg/kg i.p., 120 min before 11 Gy
[38] = 40 mg/kg i.p., 120 min before 12 Gy
[39] = 40 mg/kg i.p., 120 min before 13 Gy

Zink-bis-(DL-hydrogenaspartat) [Zinkaspartat]
akute Toxizität von Aethanol [1]: vermindert
Ueberlebensrate nach Bestrahlung mit 9 Gy % (weiblichen C3H Mäusen; [2]): 10%
Ueberlebensrate nach Bestrahlung mit 9 Gy Anzahl (weiblichen C3H Mäusen; [2]): 1/10
Ueberlebensrate nach Bestrahlung mit 9 Gy % (weiblichen C3H Mäusen; [3]): 67%
Ueberlebensrate nach Bestrahlung mit 9 Gy Anzahl (weiblichen C3H Mäusen; [3]): 26/39
Ueberlebensrate nach Bestrahlung mit 10 Gy % (weiblichen C3H Mäusen; [4]): 29%
Ueberlebensrate nach Bestrahlung mit 10 Gy Anzahl (weiblichen C3H Mäusen; [4]): 13/45
Ueberlebensrate nach Bestrahlung mit 11 Gy % (weiblichen C3H Mäusen; [5]): 0%
Ueberlebensrate nach Bestrahlung mit 11 Gy Anzahl (weiblichen C3H Mäusen; [5]): 0/20
Ueberlebensrate nach Bestrahlung mit 9 Gy % (weiblichen C3H Mäusen; [6]): 60%
Ueberlebensrate nach Bestrahlung mit 9 Gy Anzahl (weiblichen C3H Mäusen; [6]): 6/10
Ueberlebensrate nach Bestrahlung mit 10 Gy % (weiblichen C3H Mäusen; [7]): 0%
Ueberlebensrate nach Bestrahlung mit 10 Gy Anzahl (weiblichen C3H Mäusen; [7]): 1/10
Ueberlebensrate nach Bestrahlung mit 9 Gy % (weiblichen C3H Mäusen; [8]): 50%
Ueberlebensrate nach Bestrahlung mit 9 Gy Anzahl (weiblichen C3H Mäusen; [8]): 5/10
Ueberlebensrate nach Bestrahlung mit 10 Gy % (weiblichen C3H Mäusen; [9]): 0%
Ueberlebensrate nach Bestrahlung mit 10 Gy Anzahl (weiblichen C3H Mäusen; [9]): 0/10
Ueberlebensrate nach Bestrahlung mit 9 Gy % (weiblichen C3H Mäusen; [10]): 88%
Ueberlebensrate nach Bestrahlung mit 9 Gy Anzahl (weiblichen C3H Mäusen; [10]): 43/49
Ueberlebensrate nach Bestrahlung mit 10 Gy % (weiblichen C3H Mäusen; [11]): 74^+ %
Ueberlebensrate nach Bestrahlung mit 10 Gy Anzahl (weiblichen C3H Mäusen; [11]): 43/58
Ueberlebensrate nach Bestrahlung mit 11 Gy % (weiblichen C3H Mäusen; [12]): 10%
Ueberlebensrate nach Bestrahlung mit 11 Gy Anzahl (weiblichen C3H Mäusen; [12]): 3/30
Ueberlebensrate nach Bestrahlung mit 12 Gy % (weiblichen C3H Mäusen; [13]): 3%
Ueberlebensrate nach Bestrahlung mit 12 Gy Anzahl (weiblichen C3H Mäusen; [13]): 1/30
Ueberlebensrate nach Bestrahlung mit 13 Gy % (weiblichen C3H Mäusen; [14]): 0%
Ueberlebensrate nach Bestrahlung mit 13 Gy Anzahl (weiblichen C3H Mäusen; [14]): 0/20
Ueberlebensrate nach Bestrahlung mit 9 Gy % (weiblichen C3H Mäusen; [15]): 80%
Ueberlebensrate nach Bestrahlung mit 9 Gy Anzahl (weiblichen C3H Mäusen; [15]): 8/10
Ueberlebensrate nach Bestrahlung mit 10 Gy % (weiblichen C3H Mäusen; [16]): 70%
Ueberlebensrate nach Bestrahlung mit 10 Gy Anzahl (weiblichen C3H Mäusen; [16]): 21/30
Ueberlebensrate nach Bestrahlung mit 11 Gy % (weiblichen C3H Mäusen; [17]): 60%
Ueberlebensrate nach Bestrahlung mit 11 Gy % (weiblichen C3H Mäusen; 30 mg/kg i.p., 30 min before 11 Gy, listed as Zink-aspartat): 60^+ %
Ueberlebensrate nach Bestrahlung mit 11 Gy Anzahl (weiblichen C3H Mäusen; [17]): 24/40
Ueberlebensrate nach Bestrahlung mit 12 Gy % (weiblichen C3H Mäusen; [18]): 57%
Ueberlebensrate nach Bestrahlung mit 12 Gy % (weiblichen C3H Mäusen; 30 mg/kg i.p., 30 min before 12 Gy, listed as Zink-aspartat): 57^+ %
Ueberlebensrate nach Bestrahlung mit 12 Gy Anzahl (weiblichen C3H Mäusen; [18]): 17/30
Ueberlebensrate nach Bestrahlung mit 13 Gy % (weiblichen C3H Mäusen; [19]): 17%
Ueberlebensrate nach Bestrahlung mit 13 Gy Anzahl (weiblichen C3H Mäusen; [19]): 5/30
Ueberlebensrate nach Bestrahlung mit 9 Gy % (weiblichen C3H Mäusen; [20]): 90^+ %
Ueberlebensrate nach Bestrahlung mit 9 Gy Anzahl (weiblichen C3H Mäusen; [20]): 9/10
Ueberlebensrate nach Bestrahlung mit 10 Gy % (weiblichen C3H Mäusen; [21]): 40%
Ueberlebensrate nach Bestrahlung mit 10 Gy Anzahl (weiblichen C3H Mäusen; [21]): 8/20
Ueberlebensrate nach Bestrahlung mit 11 Gy % (weiblichen C3H Mäusen; [22]): 53%
Ueberlebensrate nach Bestrahlung mit 11 Gy Anzahl (weiblichen C3H Mäusen; [22]): 16/30
Ueberlebensrate nach Bestrahlung mit 12 Gy % (weiblichen C3H Mäusen; [23]): 35%
Ueberlebensrate nach Bestrahlung mit 12 Gy Anzahl (weiblichen C3H Mäusen; [23]): 7/20
Ueberlebensrate nach Bestrahlung mit 13 Gy % (weiblichen C3H Mäusen; [24]): 14%
Ueberlebensrate nach Bestrahlung mit 13 Gy Anzahl (weiblichen C3H Mäusen; [24]): 4/29
Ueberlebensrate nach Bestrahlung mit 9 Gy % (weiblichen C3H Mäusen; [25]): 59%
Ueberlebensrate nach Bestrahlung mit 9 Gy Anzahl (weiblichen C3H Mäusen; [25]): 17/29
Ueberlebensrate nach Bestrahlung mit 10 Gy % (weiblichen C3H Mäusen; [26]): 55%
Ueberlebensrate nach Bestrahlung mit 10 Gy Anzahl (weiblichen C3H Mäusen; [26]): 16/29
Ueberlebensrate nach Bestrahlung mit 11 Gy % (weiblichen C3H Mäusen; [27]): 3%
Ueberlebensrate nach Bestrahlung mit 11 Gy Anzahl (weiblichen C3H Mäusen; [27]): 1/40
Ueberlebensrate nach Bestrahlung mit 12 Gy % (weiblichen C3H Mäusen; [28]): 17%
Ueberlebensrate nach Bestrahlung mit 12 Gy Anzahl (weiblichen C3H Mäusen; [28]): 5/30
Ueberlebensrate nach Bestrahlung mit 13 Gy % (weiblichen C3H Mäusen; [29]): 5%
Ueberlebensrate nach Bestrahlung mit 13 Gy Anzahl (weiblichen C3H Mäusen; [29]): 1/19
Ueberlebensrate nach Bestrahlung mit 9 Gy % (weiblichen C3H Mäusen; [30]): 45%
Ueberlebensrate nach Bestrahlung mit 9 Gy Anzahl (weiblichen C3H Mäusen; [30]): 9/20
Ueberlebensrate nach Bestrahlung mit 10 Gy % (weiblichen C3H Mäusen; [31]): 70%
Ueberlebensrate nach Bestrahlung mit 10 Gy Anzahl (weiblichen C3H Mäusen; [31]): 7/10
Ueberlebensrate nach Bestrahlung mit 11 Gy % (weiblichen C3H Mäusen; [32]): 50%
Ueberlebensrate nach Bestrahlung mit 11 Gy Anzahl (weiblichen C3H Mäusen; [32]): 5/10
Ueberlebensrate nach Bestrahlung mit 12 Gy % (weiblichen C3H Mäusen; [33]): 30%
Ueberlebensrate nach Bestrahlung mit 12 Gy Anzahl (weiblichen C3H Mäusen; [33]): 3/10
Ueberlebensrate nach Bestrahlung mit 13 Gy % (weiblichen C3H Mäusen; [34]): 24^+ %
Ueberlebensrate nach Bestrahlung mit 13 Gy Anzahl (weiblichen C3H Mäusen; [34]): 7/29
Ueberlebensrate nach Bestrahlung mit 9 Gy % (weiblichen C3H Mäusen; [35]): 50%
Ueberlebensrate nach Bestrahlung mit 9 Gy Anzahl (weiblichen C3H Mäusen; [35]): 5/10
Ueberlebensrate nach Bestrahlung mit 10 Gy % (weiblichen C3H Mäusen; [36]): 50%
Ueberlebensrate nach Bestrahlung mit 10 Gy Anzahl (weiblichen C3H Mäusen; [36]): 5/10
Ueberlebensrate nach Bestrahlung mit 11 Gy % (weiblichen C3H Mäusen; [37]): 10%
Ueberlebensrate nach Bestrahlung mit 11 Gy Anzahl (weiblichen C3H Mäusen; [37]): 1/10
Ueberlebensrate nach Bestrahlung mit 12 Gy % (weiblichen C3H Mäusen; [38]): 0%
Ueberlebensrate nach Bestrahlung mit 12 Gy Anzahl (weiblichen C3H Mäusen; [38]): 0/10
Ueberlebensrate nach Bestrahlung mit 13 Gy % (weiblichen C3H Mäusen; [39]): 5%
Ueberlebensrate nach Bestrahlung mit 13 Gy Anzahl (weiblichen C3H Mäusen; [39]): 1/19
Ueberlebensrate in % (weiblichen C3H Mäusen; 8 Gy): 100%
Ueberlebensrate in % (weiblichen C3H Mäusen; 9 Gy): 90%
Ueberlebensrate in % (weiblichen C3H Mäusen; 10 Gy): 74%
Ueberlebensrate in % (weiblichen C3H Mäusen; 11 Gy): 60%
Ueberlebensrate in % (weiblichen C3H Mäusen; 12 Gy): 57%
Ueberlebensrate in % (weiblichen C3H Mäusen; 13 Gy): 24%
Ueberlebensrate in % (weiblichen C3H Mäusen; 14 Gy): 0%
Strahlenschutzwirkung (weiblichen C3H Mäusen; comparison with Zinkchlorid and Zinksulfat): Besonders vorteilhaft
Ueberleben einer Bestrahlung von 14 Gy (weiblichen C3H Mäusen; 20 mg/kg body weight, 14 Gy): nicht überlebten
Ueberleben einer Bestrahlung von 14 Gy (weiblichen C3H Mäusen; 30 mg/kg body weight, 14 Gy): nicht überlebten
LD₅₀-Wert (Mäuse): 55 mg/kg Körpergewicht
